These results are taken from ChEMBL document CHEMBL1156314, “Synthesis and structure-activity relationships of antimalarial 4-oxo-3-carboxyl quinolones” (Bioorg Med Chem, 2010).

For data set [1] the following is noted: pampa, pH 7.4, 10 µM.
A further data set is described as follows: in vitro. As to conditions: PAMPA, pH 7.4.
A short description of data set [2]: Membrane permeability at 10 uM at pH 4 by PAMPA method. In kind it is ADME. As to conditions: read-out: permeability.

On to `CNC(=C[N+](=O)[O-])NCCSCc1ccc(CN(C)C)o1.Cl` [RANITIDINE HYDROCHLORIDE], for which the permeability in data set [1] is listed as 1.2 10^-6 cm/s.
Turning to `CCOC(=O)c1c(-c2cccc([N+](=O)[O-])c2)[nH]c2cccc(OC)c2c1=O`, the permeability at 10 µM in “in vitro” was found to be 1100 nm/s.
For the compound `CCOC(=O)c1cc2c(OC)cccc2nc1-c1ccc2c(c1)OCO2`, the Papp at 10 µM in data set [2] worked out at 5000 nm/s.
Same read-out and setting: to `CCOC(=O)c1c(-c2ccc3c(c2)OCO3)nc2cc(OC)ccc2c1Cl` belongs 5000 nm/s.
With `NC(=O)N1c2ccccc2C=Cc2ccccc21` [CARBAMAZEPINE], the permeability in data set [1] is on record as 145 10^-6 cm/s.
